From patent US6670145B2, “Method for detection of total coliforms and E. coli” (The United States of America as represented by the …, priority 1991, dated 2003)
Structures can show the parent of a compound that is named as a salt. Values belong to the molecule of their own block, whether it stands above or below them.

What was measured:
total coliform colonies = assay: Other β-galactosidase substrates tested with IBDG in the selective base medium; assay type: cell-based, total coliforms; conditions: β-galactosidase substrate tested with IBDG in selective base medium
Text: (§1) The selective base medium without the substrates MUGal and IBDG (with or without agar) can be used with other β-galactosidase and β-glucuronidase substrates for the detection of total coliforms and/or E. coli. For example, each of three other β-galactosidase substrates (2-Nitrophenyl-β-D-galactopyranoside, Chlorophenol Red-β-galactopyranoside, and Resorufin-β-D-Galactopyranoside) have been tested with IBDG in this lab. […] We believe other combinations of substrates in this base medium would also work in the various embodiments described in this document, and different enzyme substrates (other than β-galactosidase and β-glucuronidase substrates) for specific coliforms could be used in this base medium because of its selectivity. The following guidance is provided for choosing ingredients for the alternative embodiments.

[1] = tested on: Escherichia coli (ATCC 25922); assay: Confirmatory spot test with enzyme substrates; assay type: cell-based; design: key to Reactions in Wells Containing: MUGal (fluorescence): +: A positive reaction is shown by fluorescence of the well under long wave ultraviolet light; key to Reactions in Wells Containing: IBDG (blue color): +: A positive reaction is shown by production of a blue color in the well; conditions: 35° C., up to 24 hours
Protocol: (§2) One hundred microliter volumes of a bacterial suspension were placed in three wells of a sterile porcelain spot test plate or other suitable plate with wells. The bacterial suspension was obtained in one of the following ways:
(§3) 1. A loopful of bacterial growth from a slant or an isolated colony from an agar plate was emulsified in a small amount of the liquid MI broth medium without substrates or other non-selective broths.
(§4) 2. Aliquots of 100 μl of a bacterial culture grown over-night at 35° C. in a non-selective broth or the liquid medium without substrates were used.
(§5) Sixty microliters of a freshly-prepared, filter-sterilized 16 mg/ml IBDG solution was added to one well of bacterial suspension, and 300 μl of a freshly-prepared, filter-sterilized 1 mg/ml MUGal solution was added to a second well. The third well, containing only bacterial suspension (negative control), was used as a comparator to distinguish positive and negative wells. Additional wells were inoculated with uninoculated medium, IBDG, and MUGal as controls. The plates were covered with sterile foil and incubated at 35° C. for up to 24 hours. […] This test could also be performed by adding all of the test liquids and culture or sample to a piece of filter paper or to an absorbent pad and observing the reactions.

[2] = tested on: Escherichia coli (EPA 206); assay: Confirmatory spot test with enzyme substrates; assay type: cell-based; design: key to Reactions in Wells Containing: MUGal (fluorescence): +: A positive reaction is shown by fluorescence of the well under long wave ultraviolet light; key to Reactions in Wells Containing: IBDG (blue color): +: A positive reaction is shown by production of a blue color in the well; conditions: 35° C., up to 24 hours
Protocol: as §2, §3, §4, §5

E. coli colonies = assay: Other β-galactosidase substrates tested with IBDG in the selective base medium; assay type: cell-based; conditions: IBDG with each of three other β-galactosidase substrates in selective base medium
Text: as §1

[3] = tested on: Enterobacter aerogenes (EPA 202); assay: Confirmatory spot test with enzyme substrates; assay type: cell-based; design: key: +: A positive reaction is shown by fluorescence of the well under long wave ultraviolet light; conditions: 35° C., up to 24 hours, UV 366 nm
Protocol: as §2, §3, §4, §5

[4] = tested on: Klebsiella pneumoniae (EPA 207); assay: Confirmatory spot test with enzyme substrates; assay type: cell-based; design: key: +: A positive reaction is shown by fluorescence of the well under long wave ultraviolet light; conditions: 35° C., up to 24 hours, UV 366 nm
Protocol: as §2, §3, §4, §5

Structure (SMILES): O=[N+]([O-])c1ccccc1O[C@@H]1O[C@H](CO)[C@H](O)[C@H](O)[C@H]1O [2-Nitrophenyl-β-D-galactopyranoside]
colors of the total coliform colonies (total coliform colonies): yellow

Structure (SMILES): O=S1(=O)OC(c2ccc(O)c(Cl)c2)(c2ccc(O[C@@H]3O[C@H](CO)[C@H](O)[C@H](O)[C@H]3O)c(Cl)c2)c2ccccc21 (stereo partly drawn) [Chlorophenol Red-β-galactopyranoside]
colors of the total coliform colonies (total coliform colonies): orchid

Structure (SMILES): O=C(O)[C@H]1O[C@@H](Oc2c[nH]c3ccccc23)[C@H](O)[C@@H](O)[C@@H]1O [IBDG, Indoxyl-Beta-D-glucuronide, sodium salt or cyclohexylammonium salt]
Reactions in Wells Containing: IBDG (blue color) [1]: +
Reactions in Wells Containing: IBDG (blue color) [2]: +
color of the E. coli colonies (E. coli colonies): varying shades of blue

Reactions in Wells Containing: MUGal (fluorescence) [3]: +
Reactions in Wells Containing: MUGal (fluorescence) [4]: +
Structure (SMILES): Cc1cc(=O)oc2cc(O[C@@H]3O[C@H](CO)[C@H](O)[C@H](O)[C@H]3O)ccc12 [MUGal, 4-Methylumbelliferyl-Beta-D-galactopyranoside]
Reactions in Wells Containing: MUGal (fluorescence) ([1]; UV 366 nm): +
Reactions in Wells Containing: MUGal (fluorescence) ([2]; UV 366 nm): +

Structure (SMILES): O=c1ccc2nc3ccc(O[C@@H]4O[C@H](CO)[C@H](O)[C@H](O)[C@H]4O)cc3oc-2c1 [Resorufin-β-D-Galactopyranoside]
colors of the total coliform colonies (total coliform colonies): pink-red
